The values that follow come from ChEMBL document CHEMBL4130619, “Structure-Based Virtual Screening for the Discovery of Novel Inhibitors of New Delhi Metallo-β-lactamase-1” (ACS Med Chem Lett, 2018).

Experiment [1] in a line: Competitive inhibition of bacterial NDM1 expressed in Escherichia coli JM109 (DE3) pre-incubated for 10 mins before nitrocefin substrate addition by spectrophotometry. The arrangement: species or system Bacteria.
Experiment [2] has as its system Bacteria. Put plainly: Competitive inhibition of bacterial NDM1 expressed in Escherichia coli JM109 (DE3) at 200 uM pre-incubated for 10 mins before nitrocefin substrate addition by spectrophotometry.
The test system of experiment [3] is Bacteria. Put plainly: Inhibition of bacterial NDM1 expressed in Escherichia coli BL21 (DE3) expressing pET-24a-blaNDM-1 assessed as potentiation of cefotaxime-induced antibacterial activity by measuring reduction in cefotaxime MIC incubated at 37 degC for 18 hrs by spectrophotometry based checkerboard microdilution assay.
In experiment [4] the test system is Bacteria. Put plainly: Inhibition of bacterial NDM1 expressed in Escherichia coli BL21 (DE3) expressing pET-24a-blaNDM-1 assessed as potentiation of ampicillin-induced antibacterial activity by measuring combination MIC at >256 ug/ml incubated at 37 degC for 18 hrs by spectrophotometry based checkerboard microdilution assay. Background: In broth dilution the organism is exposed to a series of concentrations in liquid medium.

The subject of experiment [5] is Bacteria. Put plainly: Inhibition of bacterial NDM1 expressed in Escherichia coli BL21 (DE3) expressing pET-24a-blaNDM-1 assessed as potentiation of ampicillin-induced antibacterial activity by measuring combination MIC at 256 ug/ml incubated at 37 degC for 18 hrs by spectrophotometry based checkerboard microdilution assay.
The test system of experiment [6] is Bacteria. Put plainly: Inhibition of bacterial NDM1 expressed in Escherichia coli BL21 (DE3) expressing pET-24a-blaNDM-1 assessed as potentiation of meropenem-induced antibacterial activity by measuring combination MIC at 16 ug/ml incubated at 37 degC for 18 hrs by spectrophotometry based checkerboard microdilution assay.
Experiment [7] concerns Bacteria. Put plainly: Inhibition of bacterial NDM1 expressed in Escherichia coli BL21 (DE3) expressing pET-24a-blaNDM-1 assessed as potentiation of meropenem-induced antibacterial activity by measuring combination MIC at 0.25 ug/ml incubated at 37 degC for 18 hrs by spectrophotometry based checkerboard microdilution assay.
The test system of experiment [8] is Bacteria. Put plainly: Inhibition of bacterial NDM1 expressed in Escherichia coli BL21 (DE3) expressing pET-24a-blaNDM-1 assessed as potentiation of cefazolin-induced antibacterial activity by measuring combination MIC at 256 ug/ml incubated at 37 degC for 18 hrs by spectrophotometry based checkerboard microdilution assay.
Experiment [9] concerns Bacteria. Put plainly: Inhibition of bacterial NDM1 expressed in Escherichia coli BL21 (DE3) expressing pET-24a-blaNDM-1 assessed as potentiation of cefotaxime-induced antibacterial activity by measuring combination MIC at 4 ug/ml incubated at 37 degC for 18 hrs by spectrophotometry based checkerboard microdilution assay.
For experiment [10], the system named is Bacteria. Put plainly: Inhibition of bacterial NDM1 expressed in Escherichia coli BL21 (DE3) expressing pET-24a-blaNDM-1 assessed as potentiation of cefotaxime-induced antibacterial activity by measuring combination MIC at 0.25 ug/ml incubated at 37 degC for 18 hrs by spectrophotometry based checkerboard microdilution assay.
Experiment [11] concerns Bacteria. Put plainly: Inhibition of bacterial NDM1 expressed in Escherichia coli BL21 (DE3) expressing pET-24a-blaNDM-1 assessed as potentiation of ampicillin-induced antibacterial activity by measuring fractional inhibitory concentration index at >256 ug/ml incubated at 37 degC for 18 hrs by spectrophotometry based checkerboard microdilution assay.
In experiment [12] the test system is Bacteria. Put plainly: Inhibition of bacterial NDM1 expressed in Escherichia coli BL21 (DE3) expressing pET-24a-blaNDM-1 assessed as potentiation of ampicillin-induced antibacterial activity by measuring fractional inhibitory concentration index at 256 ug/ml incubated at 37 degC for 18 hrs by spectrophotometry based checkerboard microdilution assay.
Experiment [13] deals with Bacteria. Put plainly: Inhibition of bacterial NDM1 expressed in Escherichia coli BL21 (DE3) expressing pET-24a-blaNDM-1 assessed as potentiation of meropenem-induced antibacterial activity by measuring fractional inhibitory concentration index at 0.25 ug/ml incubated at 37 degC for 18 hrs by spectrophotometry based checkerboard microdilution assay.
Experiment [14] deals with Bacteria. Put plainly: Inhibition of bacterial NDM1 expressed in Escherichia coli BL21 (DE3) expressing pET-24a-blaNDM-1 assessed as potentiation of cefazolin-induced antibacterial activity by measuring fractional inhibitory concentration index at >256 ug/ml incubated at 37 degC for 18 hrs by spectrophotometry based checkerboard microdilution assay.
For experiment [15], the system named is Bacteria. Put plainly: Inhibition of bacterial NDM1 expressed in Escherichia coli BL21 (DE3) expressing pET-24a-blaNDM-1 assessed as potentiation of cefazolin-induced antibacterial activity by measuring fractional inhibitory concentration index at 256 ug/ml incubated at 37 degC for 18 hrs by spectrophotometry based checkerboard microdilution assay.
Experiment [16] has as its system Bacteria. Put plainly: Inhibition of bacterial NDM1 expressed in Escherichia coli BL21 (DE3) expressing pET-24a-blaNDM-1 assessed as potentiation of cefotaxime-induced antibacterial activity by measuring fractional inhibitory concentration index at 4 ug/ml incubated at 37 degC for 18 hrs by spectrophotometry based checkerboard microdilution assay.
The test system of experiment [17] is Bacteria. Put plainly: Inhibition of bacterial NDM1 expressed in Escherichia coli BL21 (DE3) expressing pET-24a-blaNDM-1 assessed as potentiation of cefotaxime-induced antibacterial activity by measuring fractional inhibitory concentration index at 0.25 ug/ml incubated at 37 degC for 18 hrs by spectrophotometry based checkerboard microdilution assay.
Experiment [18] has as its target Beta-lactamase NDM-1 (Escherichia coli) (UniProt E5KIY2). Put plainly: Inhibition of NDM1 in Escherichia coli clinical isolates assessed as potentiation of ampicillin-induced antibacterial activity by measuring combination MIC at 128 ug/ml incubated at 37 degC for 18 hrs by spectrophotometry based checkerboard microdilution assay.
Experiment [19] shares this target. Put plainly: Inhibition of NDM1 in Escherichia coli clinical isolates assessed as potentiation of cefazolin-induced antibacterial activity by measuring combination MIC at >256 ug/ml incubated at 37 degC for 18 hrs by spectrophotometry based checkerboard microdilution assay.
For experiment [20] the target is unchanged. Put plainly: Inhibition of NDM1 in Escherichia coli clinical isolates assessed as potentiation of cefotaxime-induced antibacterial activity by measuring combination MIC at >256 ug/ml incubated at 37 degC for 18 hrs by spectrophotometry based checkerboard microdilution assay.
For experiment [21] the target is unchanged. Put plainly: Inhibition of NDM1 in Escherichia coli clinical isolates assessed as potentiation of ampicillin-induced antibacterial activity by measuring fractional inhibitory concentration index at 128 ug/ml incubated at 37 degC for 18 hrs by spectrophotometry based checkerboard microdilution assay.
Experiment [22] shares this target. Put plainly: Inhibition of NDM1 in Escherichia coli clinical isolates assessed as potentiation of meropenem -induced antibacterial activity by measuring fractional inhibitory concentration index at 2 ug/ml incubated at 37 degC for 18 hrs by spectrophotometry based checkerboard microdilution assay.
The target is the same in experiment [23]. Put plainly: Inhibition of NDM1 in Escherichia coli clinical isolates assessed as potentiation of cefazolin-induced antibacterial activity by measuring fractional inhibitory concentration index at >256 ug/ml incubated at 37 degC for 18 hrs by spectrophotometry based checkerboard microdilution assay.
For experiment [24] the target is unchanged. Put plainly: Inhibition of NDM1 in Escherichia coli clinical isolates assessed as potentiation of cefotaxime-induced antibacterial activity by measuring fractional inhibitory concentration index at >256 ug/ml incubated at 37 degC for 18 hrs by spectrophotometry based checkerboard microdilution assay.

As to `C=CCn1c(S)nnc1-c1ccccc1O`, the Ki (commonly a measure of affinity in units of concentration, obtained from inhibition or displacement) in [1] is 720 nM. In the experiment on Bacteria [2], the inhibition (as a rule, the drop in the measured response relative to a control, in per cent) is greater than 50%. Moreover, the fold change (FC) in the experiment with Bacteria [3] is 4. Moreover, the MIC with Bacteria [4] is 1020 µg/mL; in the experiment with Bacteria [5], 0.0625 µg/mL; in the experiment on Bacteria [6], 0.25 µg/mL; in the experiment with Bacteria [7], 0.5 µg/mL; with Bacteria [8] it was 1 µg/mL; in the experiment with Bacteria [9] it was 2 µg/mL. For the same compound, the MIC in the experiment on Bacteria [10] is 4 µg/mL; in [18], 16 µg/mL; in experiment [19], 2050 µg/mL; in experiment [20], 1020 µg/mL. The fractional inhibitory concentration index (FICI) in the experiment on Bacteria [11] is greater than 1; in the experiment with Bacteria [12], less than 0.563; in the experiment on Bacteria [13], less than 0.501; in the experiment with Bacteria [14] it was greater than 1; in the experiment with Bacteria [15] it was less than 0.625; in the experiment on Bacteria [16], less than 0.258. Moreover, the fractional inhibitory concentration index (FICI) was less than 0.505 in the experiment with Bacteria [17]; less than 0.375 in [21]; less than 0.504 in experiment [22]; greater than 1 in [23]; greater than 1 in [24].
